From PMC12434536, “Radiosynthesis and Preclinical Evaluation of a Carbon-11 Labeled Phosphodiesterase 7 Inhibitor for PET Neuroimaging” (ACS Medicinal Chemistry Letters, 2025)
Read-outs that look alike come from different tables or passages of the source.

Tests used:
[1] = system: other PDE isozymes (PDE1A/B/C, 2A, 3A/B, 4A/B/C/D, 5A, 8A, 9A, and 10A); experiment: Selectivity over other PDE isozymes; type: biochemical; details: at 3 μM of compound 27; human recombinant enzymes
Experimental: (§1) protein-ligand complex were saved and were then loaded into Schrödinger Maestro to generate the ligand interaction plot.
(§2) In vitro inhibitory assay to PDE7 of compound 27 and selectivity to other PDEs Functional activity of target compound 27 for inhibition of PDE7A activity and the selectivity over other PDE isozymes (PDE1A/B/C, 2A, 3A/B, 4A/B/C/D, 5A, 8A, 9A, and 10A) were evaluated by Eurofins Panlabs Discovery Services and Reaction Biology Corp., respectively. Human recombinant enzymes were used for the assays. The inhibitory assays were performed and calculated in duplicate at 3 µM. If the inhibition percentage was less than 50%, the assay for half-maximal inhibitory concentration (IC50) value was conducted in […]
(§3) CYP450 isoform metabolism and in vitro safety profiling
(§4) The inhibitory constant of compound 26 toward cytochrome P450-dependent metabolic pathways was determined for individual CYP isoform (CYP1A2, CYP2C9, CYP2C19, CYP2D6, and CYP3A4). Reference inhibitors were included as positive controls. A 10 µM solution of compound 27 was used for initial screening. If the inhibition percentage was less than 50%, the experiment was stopped. If the inhibition potency was greater than 50%, the gradient concentrations of compound 27 were used for IC 50 determination. The P450 reactions were detected at Ext/Em: 405 nm/460 nm (530 nm/605 nm for CYP2C9) in a […]

PDE7 [2] = experiment: PET imaging in nonhuman primates (baseline and self-blocking); type: in vivo, Cynomolgus monkeys; details: monkeys, self-blocking, 0.4 or 1 mg/kg
Experimental: Cynomolgus monkeys used for PET/CT scan were deprived of food for 12h but allowed to drink water at any time. Animals (Male, bodyweight 5.0-5.2 kg) were anesthetized with ketamine, placed into the scanner (GE Discovery Elite 690, USA), and maintained with 2% isoflurane and 98% oxygen. A solution of [11C]27 (6.24–9.84 mCi) was injected into the monkey via a venous catheter, followed by a dynamic PET scan. For the blocking study, the blocking reagent reference compound 27 (0.4 or 1.0 mg/kg, iv) was used, followed by the injection of [11C]27. Time-activity curves of each brain region were extracted from the corresponding VOIs and brain uptake was decay-corrected and expressed as SUV. biodistribution studies in miceWhole-body ex vivo

PDE7A = biological target: T1, PDE7A (Homo sapiens, UniProt Q13946); experiment: In vitro inhibitory assay of PDE7A activity; type: biochemical; details: human recombinant enzyme; read-out: inhibitory constant (IC50) toward PDE7A
T1 construct: purchased Eurofins Panlabs Discovery Services (contract assay)
T1 sequence (Q13946 whole entry): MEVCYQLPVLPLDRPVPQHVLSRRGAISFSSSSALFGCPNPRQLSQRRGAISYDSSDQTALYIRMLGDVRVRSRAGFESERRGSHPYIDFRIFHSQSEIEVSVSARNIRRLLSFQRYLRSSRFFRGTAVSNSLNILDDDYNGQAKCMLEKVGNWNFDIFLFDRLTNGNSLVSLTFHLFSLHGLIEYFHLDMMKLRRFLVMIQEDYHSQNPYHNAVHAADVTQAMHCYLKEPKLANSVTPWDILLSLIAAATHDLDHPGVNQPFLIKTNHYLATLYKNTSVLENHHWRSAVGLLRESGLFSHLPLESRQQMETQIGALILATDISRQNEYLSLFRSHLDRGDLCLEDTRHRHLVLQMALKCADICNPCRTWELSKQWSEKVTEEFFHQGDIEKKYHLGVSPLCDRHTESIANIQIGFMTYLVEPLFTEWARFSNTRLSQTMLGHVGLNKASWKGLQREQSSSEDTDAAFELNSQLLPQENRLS
Experimental: as §1, §2, §3, §4

[3] = Pharmacokinetics in plasma and brain (NeuroPK study); type: in vivo, Sprague-Dawley rats
Experimental: Pharmacokinetics in Plasma and Brain (NeuroPK study)
Nine male wildtype Sprague Dawley rats were administered a bolus injection containing compound 27 in saline (1 mg/kg, 2 mL/kg) via the tail vein. Blood samples (approximately 120 µL) were harvested under light isoflurane anesthesia from a set of three rats at 0.08, 0.25, and 1 hr. Blood and brain samples were collected at 5, […] and 60 min. Following centrifugation of blood samples, the resulting plasma supernatant was stored at -70 ± 10 °C till further analysis. Brain samples were homogenized using ice-cold phosphate buffer saline (pH 7.4) and homogenates were stored below -70 ± 10 °C until further analysis. Total homogenate volume was three times the brain weight. Plasma and brain samples were quantified by LC-MS/MS method. The plasma and brain concentration-time data of compound 27 was used for pharmacokinetic analysis. […]

[4] = system: CYP2C9, CYP2C19, CYP2D6, CYP3A4; experiment: CYP450 isoform inhibition profiling, other isoforms; type: in vitro ADME; details: all isoforms except CYP1A2; read-out: IC50 against the other CYP450 isoforms
Experimental: page 5: protein-ligand complex were saved and were then loaded into Schrödinger Maestro to generate the ligand interaction plot. In vitro inhibitory assay to PDE7 of compound 27 and selectivity to other PDEs Functional activity of target compound 27 for inhibition of PDE7A activity and the selectivity over other PDE isozymes ([…], and 10A) were evaluated by Eurofins Panlabs Discovery Services and Reaction Biology Corp., respectively. Human recombinant enzymes were used for the assays. The inhibitory assays were performed and calculated in duplicate at 3 μM. If the inhibition percentage was less […] duplicate. CYP450 isoform metabolism and in vitro safety profiling The inhibitory constant of compound 26 toward cytochrome P450-dependent metabolic pathways was determined for individual CYP isoform (CYP1A2, CYP2C9, CYP2C19, CYP2D6, and CYP3A4). Reference inhibitors were included as positive controls. A 10 μM solution of compound 27 was used for initial screening. If the inhibition percentage was less than 50%, the experiment was stopped. […] gradient concentrations of compound 27 were used for IC 50 determination. The P450 reactions were detected at Ext/Em: 405 nm/460 nm (530 nm/605 nm for CYP2C9) in a S3 page 6: […] IC50 curves were plotted using a non-linear regression model with Graphpad Prism 6. […] Plasma and brain samples were quantified by LC-MS/MS method. […]

PDE7 [5] = experiment: PET imaging in rats (baseline and self-blocking); type: in vivo, Sprague-Dawley rats; details: SD rats, self-blocking, 1 mg/kg
Experimental: page 10: All animal experiments were approved by the Institutional Animal Care and Use Committee of Massachusetts General Hospital or the National Institute of Radiological Sciences (Japan). C57BL/6 mice (female; 8 weeks, 20-25 g) and Sprague-Dawley rats (male; 8-9 weeks; 264-310 g) were kept on a 12 h light/12 h dark cycle and were allowed food and water ad libitum. Rodent PET scans were carried out using a […] (Sofie Biosciences, Culver, CA, USA) or a Siemens Inveon PET/CT system. Animals were kept under anesthesia using 1-2% (v/v) isoflurane in oxygen during the scan. The radiotracer (1.85 MBq for mice; 42-53 MBq for rats) was injected into the tail vein via a preinstalled catheter. A dynamic scan in 3D list mode was acquired for 60 min. The PET dynamic images were reconstructed using the manufacturer's acquisition software. Volumes of interest, including whole brain, cortex, striatum, hippocampus, thalamus and cerebellum were placed using AMIDE / PMOD software. The radioactivity was decay-corrected and expressed as standardized uptake value (SUV = radioactivity per mL tissue / injected radioactivity × bodyweight). S8

[6] = 5 min, single iv 1 mg/kg, male Sprague-Dawley rats, n = 3, 1 mg/kg

COc1ccc(Cl)c2c1C1(CCCCC1)NC(=O)N2 [Compound 27]
% inhibition of other PDE isomers [1]: < 50% | effect of pretreatment on [11C]27 uptake in all assessed brain regions (PDE7 [2]): moderately reduced | IC50 (PDE7A): 31 nM | brain concentration mean [3, 6]: 3316.17 ng/g | plasma concentration mean [3, 6]: 712.49 ng/mL | plasma concentration mean ([3]; 60 min, single iv 1 mg/kg, male Sprague-Dawley rats, n = 3, 1 mg/kg): 39.39 ng/mL | brain-to-plasma ratios (Kp) ([3]; all measured time points (5-60 min), SD rats, 1 mg/kg iv, 1 mg/kg): > 3 | fraction of the compound remaining in the brain ([3]; last measured time point (60 min), relative to 5 min peak, rats): less than 5% | Kp at 5 min ([3]; male, Sprague-Dawley, rat, brain, iv, 1 mg/kg, 5 min, single iv 1 mg/kg, male Sprague-Dawley rats, n = 3, read-out: Kp (brain-to-plasma ratio) mean): 4.76 | Kp at 25 min ([3]; male, Sprague-Dawley, rat, brain, iv, 1 mg/kg, 25 min, single iv 1 mg/kg, male Sprague-Dawley rats, n = 3, read-out: Kp (brain-to-plasma ratio) mean): 4 | Kp at 1 h ([3]; male, Sprague-Dawley, rat, brain, iv, 1 mg/kg, 60 min, single iv 1 mg/kg, male Sprague-Dawley rats, n = 3, read-out: Kp (brain-to-plasma ratio) mean): 3.35 | Kp ([3]; male, Sprague-Dawley, rat, brain, iv, 1 mg/kg, all measured time points (5-60 min), SD rats, 1 mg/kg iv, read-out: brain-to-plasma ratios (Kp)): 3 to 5 | concentration at 5 min ([3]; rat, brain, 5 min, single iv 1 mg/kg, male Sprague-Dawley rats, n = 3, read-out: brain concentration mean): 3320 ± 378 ng/g | concentration at 25 min ([3]; rat, brain, 25 min, single iv 1 mg/kg, male Sprague-Dawley rats, n = 3, read-out: brain concentration mean): 876 ng/g | concentration at 60 min ([3]; rat, brain, 60 min, single iv 1 mg/kg, male Sprague-Dawley rats, n = 3, read-out: brain concentration mean): 132 ng/g | concentration at 5 min ([3]; rat, plasma, 5 min, single iv 1 mg/kg, male Sprague-Dawley rats, n = 3, read-out: plasma concentration mean): 712 ± 153 ng/mL | concentration at 25 min ([3]; rat, plasma, 25 min, single iv 1 mg/kg, male Sprague-Dawley rats, n = 3, read-out: plasma concentration mean): 229 ng/mL | concentration at 60 min ([3]; rat, plasma, 60 min, single iv 1 mg/kg, male Sprague-Dawley rats, n = 3, read-out: plasma concentration mean): 39.4 ± 4.44 ng/mL | IC50 at 80 min [4]: ≥ 10000 nM | effect of pretreatment on [11C]27 brain uptake (PDE7 [5]): marginally reduced brain uptake
